Assays:
human DGAT1 = human DGAT1 (Homo sapiens (Human), UniProt O75907); experiment: Radiometric DGAT1 assay, human liver microsomes; type: biochemical; details: Source of human DGAT activity B = human liver microsomes
Description: (§1) A second source of DGAT1 activity was human or mouse liver microsomes.

mouse DGAT1 = mouse DGAT1 (Mus musculus (Mouse), UniProt Q9Z2A7); experiment: Radiometric DGAT1 assay, mouse liver microsomes; type: biochemical; details: mouse liver microsomes having mouse DGAT1 activity
Sequence of mouse DGAT1 (Q9Z2A7 whole entry): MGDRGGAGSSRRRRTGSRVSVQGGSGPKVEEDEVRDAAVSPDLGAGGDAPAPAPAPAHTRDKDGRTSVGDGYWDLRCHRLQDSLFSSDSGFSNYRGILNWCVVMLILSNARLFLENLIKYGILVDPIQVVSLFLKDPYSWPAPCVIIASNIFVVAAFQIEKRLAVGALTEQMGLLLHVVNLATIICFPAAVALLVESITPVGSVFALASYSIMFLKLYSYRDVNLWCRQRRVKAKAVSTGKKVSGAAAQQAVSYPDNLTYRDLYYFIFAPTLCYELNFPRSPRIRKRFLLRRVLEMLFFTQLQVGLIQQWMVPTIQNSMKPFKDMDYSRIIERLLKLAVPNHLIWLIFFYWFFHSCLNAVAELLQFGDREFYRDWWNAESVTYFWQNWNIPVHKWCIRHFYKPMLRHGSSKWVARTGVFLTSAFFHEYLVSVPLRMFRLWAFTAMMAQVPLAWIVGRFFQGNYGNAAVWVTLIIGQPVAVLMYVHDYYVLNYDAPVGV
Description: as §1

Sequence of human DGAT1 (O75907 whole entry): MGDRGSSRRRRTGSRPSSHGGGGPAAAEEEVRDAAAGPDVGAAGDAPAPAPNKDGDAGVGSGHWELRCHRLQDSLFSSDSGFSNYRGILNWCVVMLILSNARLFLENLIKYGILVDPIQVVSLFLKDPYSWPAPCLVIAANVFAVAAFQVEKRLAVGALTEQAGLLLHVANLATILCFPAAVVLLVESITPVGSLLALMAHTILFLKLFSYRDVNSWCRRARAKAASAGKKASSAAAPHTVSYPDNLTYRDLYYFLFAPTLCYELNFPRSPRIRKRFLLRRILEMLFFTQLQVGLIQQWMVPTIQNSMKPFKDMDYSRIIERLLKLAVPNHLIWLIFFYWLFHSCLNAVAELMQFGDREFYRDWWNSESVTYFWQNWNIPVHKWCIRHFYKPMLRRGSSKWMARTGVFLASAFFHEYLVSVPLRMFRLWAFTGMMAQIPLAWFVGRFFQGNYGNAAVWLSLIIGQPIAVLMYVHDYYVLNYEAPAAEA

Row | IC50 (human DGAT1) [nM] | IC50 (mouse DGAT1) [nM] | Compound
1 | < 175 | < 100 | O=C(O)C[C@H]1CC[C@H](c2ccc(-c3ccc4nc(C(=O)NCc5cccc(OC(F)(F)F)c5)cn4c3)cc2)CC1 [Compound 7, 2-((1r,4r)-4-(4-(2-((3-(Trifluoromethoxy)benzyl)carbamoyl)imidazo[1,2-a]pyridin-6-yl)-phenyl)cyclohexyl)acetic acid]
2 | < 125 | < 50 | CC(C)(C)c1ccc(CNC(=O)c2cn3cc(-c4ccc([C@H]5CC[C@H](CC(=O)O)CC5)cc4)ccc3n2)cc1 [Compound 8, 2-((1r,4r)-4-(4-(2-((4-(tert-Butyl)benzyl)carbamoyl)imidazo[1,2-a]pyridin-6-yl)phenyl)-cyclohexyl)acetic acid]
3 | < 50 | < 100 | O=C(O)C[C@H]1CC[C@H](c2ccc(-c3ccc4nc(C(=O)NCc5ccccc5)cn4c3)cc2)CC1 [Compound 31, 2-((1r,4r)-4-(4-(2-(Benzylcarbamoyl)imidazo[1,2-a]pyridin-6-yl)phenyl)cyclohexyl)acetic acid]
4 | < 25 | < 75 | COc1ccccc1CNC(=O)c1cn2cc(-c3ccc([C@H]4CC[C@H](CC(=O)O)CC4)cc3)ccc2n1 [Compound 41, 2-((1r,4r)-4-(4-(2-((2-Methoxybenzyl)carbamoyl)imidazo[1,2-a]pyridin-6-yl)phenyl)cyclohexyl)acetic acid]
5 | < 10 | < 10 | Cc1cc(Cl)cc(Cl)c1CNC(=O)c1cn2cc(-c3ccc(C4CCC(CC(=O)O)CC4)cc3)ccc2n1 (stereo not drawn) [Compound 43, 2-((1s,4s)-4-(4-(2-((2,4-Dichloro-6-methylbenzyl)carbamoyl)imidazo[1,2-a]pyridin-6-yl)phenyl)cyclohexyl)acetic acid]
6 | < 50 | < 50 | Cc1ccc(CNC(=O)c2nc3ccc(-c4ccc(C5CCC(CC(=O)O)CC5)cc4)cn3n2)cc1 (stereo not drawn) [Compound 45, 2-((1s,4s)-4-(4-(2-((4-Methylbenzyl)carbamoyl)-[1,2,4]triazolo[1,5-a]pyridin-6-yl)phenyl)cyclohexyl)acetic acid]
7 | < 10 | < 25 | O=C(O)C[C@H]1CC[C@H](c2ccc(-c3cn4cc(C(=O)NC5(c6cc(F)ccc6F)CC5)nc4s3)cc2)CC1 [Compound 54, 2-((1r,4r)-4-(4-(6-((1-(2,5-Difluorophenyl)cyclopropyl)carbamoyl)imidazo[2,1-b]thiazol-2-yl)phenyl)cyclohexyl)acetic acid]

Further lines, the compound ahead of its results:

Row | Compound | IC50 (human DGAT1) [nM] | IC50 (mouse DGAT1) [nM]
8 | O=C(O)C[C@H]1CC[C@H](c2ccc(-c3ccc4nc(C(=O)NCc5ccc(C(F)(F)F)cc5)cn4c3)cc2)CC1 [Compound 4, 2-((1r,4r)-4-(4-(2-((4-(Trifluoromethyl)benzyl)carbamoyl)imidazo[1,2-a]pyridin-6-yl)-phenyl)cyclohexyl)acetic acid] | < 150 | < 75
9 | O=C(O)C[C@H]1CC[C@H](c2ccc(-c3ccc4nc(C(=O)Nc5cccc(OC(F)(F)F)c5)cn4c3)cc2)CC1 [Compound 5, 2-((1r,4r)-4-(4-(2-((3-(Trifluoromethoxy)phenyl)carbamoyl)imidazo[1,2-a]pyridin-6-yl)-phenyl)cyclohexyl)acetic acid] | < 100 | < 125
10 | O=C(O)C[C@H]1CC[C@H](c2ccc(-c3ccc4nc(C(=O)Nc5cccc(C(F)(F)F)c5)cn4c3)cc2)CC1 [Compound 6, 2-((1r,4r)-4-(4-(2-((3-(Trifluoromethyl)phenyl)carbamoyl)imidazo[1,2-a]pyridin-6-yl)-phenyl)cyclohexyl)acetic acid] | < 75 | < 150
11 | COc1ccc(CNC(=O)c2cn3cc(-c4ccc([C@H]5CC[C@H](CC(=O)O)CC5)cc4)ccc3n2)cc1OC [Compound 23, 2-((1r,4r)-4-(4-(2-((3,4-Dimethoxybenzyl)carbamoyl)imidazo[1,2-a]pyridin-6-yl)phenyl)-cyclohexyl)acetic acid] | < 25 | < 25
12 | O=C(O)CC1CCC(c2ccc(-c3ccc4nc(C(=O)NCc5c(F)cc(Cl)cc5F)cn4c3)cc2)CC1 (stereo not drawn) [Compound 42, 2-((1s,4s)-4-(4-(2-((4-chloro-2,6-difluorobenzyl)carbamoyl)imidazo[1,2-a]pyridin-6-yl)phenyl)cyclohexyl)acetic acid] | < 10 | < 10
13 | Cc1cc(C)c(CNC(=O)c2cn3cc(-c4ccc(C5CCC(CC(=O)O)CC5)cc4)ccc3n2)c(C)c1 (stereo not drawn) [Compound 44, 2-((1s,4s)-4-(4-(2-((2,4,6-Trimethylbenzyl)carbamoyl)imidazo[1,2-a]pyridin-6-yl)phenyl)cyclohexyl)acetic acid] | < 25 | < 10
14 | CC(C)(C)c1ccc(CNC(=O)c2cn3cc(-c4ccc([C@H]5CC[C@H](CC(=O)O)CC5)cc4)sc3n2)cc1 [Compound 46, 2-((1r,4r)-4-(4-(6-((4-(tert-Butyl)benzyl)carbamoyl)imidazo[2,1-b]thiazol-2-yl)phenyl)-cyclohexyl)acetic acid] | < 1 | < 50
15 | O=C(O)C[C@H]1CC[C@H](c2ccc(-c3cn4cc(C(=O)NCc5cccc(OC(F)(F)F)c5)nc4s3)cc2)CC1 [Compound 50, 2-((1r,4r)-4-(4-(6-((3-(Trifluoromethoxy)benzyl)carbamoyl)imidazo[2,1-b]thiazol-2-yl)-phenyl)cyclohexyl)acetic acid] | < 50 | < 25
16 | O=C(O)C[C@H]1CC[C@H](c2ccc(-c3cn4cc(C(=O)NCc5cc(OC(F)(F)F)ccc5F)nc4s3)cc2)CC1 [Compound 51, 2-((1r,4r)-4-(4-(6-((2-Fluoro-5-(trifluoromethoxy)benzyl)carbamoyl)imidazo[2,1-b]thiazol-2-yl)phenyl)cyclohexyl)acetic acid] | < 50 | < 50
17 | O=C(O)C[C@H]1CC[C@H](c2ccc(-c3cn4cc(C(=O)Nc5cccc(OC(F)(F)F)c5)nc4s3)cc2)CC1 [Compound 52, 2-((1r,4r)-4-(4-(6-((3-(Trifluoromethoxy)phenyl)carbamoyl)imidazo[2,1-b]thiazol-2-yl)-phenyl)cyclohexyl)acetic acid] | < 10 | < 10
18 | CC(C)c1ccc(CNC(=O)c2cn3cc(-c4ccc([C@H]5CC[C@H](CC(=O)O)CC5)cc4)sc3n2)cc1 [Compound 53, 2-((1r,4r)-4-(4-(6-((4-Isopropylbenzyl)carbamoyl)imidazo[2,1-b]thiazol-2-yl)phenyl)cyclohexyl)acetic acid] | < 25 | < 100
19 | COc1ccc(OC(F)(F)F)cc1CNC(=O)c1cn2cc(-c3ccc([C@H]4CC[C@H](CC(=O)O)CC4)cc3)sc2n1 [Compound 55, 2-((1r,4r)-4-(4-(6-((2-Methoxy-5-(trifluoromethoxy)benzyl)carbamoyl)imidazo[2,1-b]-thiazol-2-yl)phenyl)cyclohexyl)acetic acid] | < 10 | < 25
20 | O=C(O)C[C@H]1CC[C@H](c2ccc(-c3cn4cc(C(=O)NCc5ccc(OC(F)(F)F)cc5)nc4s3)cc2)CC1 [Compound 56, 2-((1r,4r)-4-(4-(6-((4-(Trifluoromethoxy)benzyl)carbamoyl)imidazo[2,1-b]thiazol-2-yl)-phenyl)cyclohexyl)acetic acid] | < 10 | < 50
21 | CC(C)(C(=O)O)[C@H]1CC[C@H](c2ccc(-c3ccc4nc(C(=O)NCc5ccccc5)cn4c3)cc2)CC1 [Compound 65, 2-((1r,4r)-4-(4-(2-(Benzylcarbamoyl)imidazo[1,2-a]pyridin-6-yl)phenyl)cyclohexyl)-2-methylpropanoic acid] | < 10 | < 125
